Reference: BigSolDB 2.1

Nc1cccc2ccccc12
solubility (mole fraction)
Details | 273.15 K | 278.15 K | 283.15 K | 288.15 K | 293.15 K | 298.15 K | 303.15 K | 308.15 K
in acetone | 0.552 | 0.59 | 0.636 | 0.684 | 0.724 | 0.778 | 0.839 | 0.898
in acetonitrile | 0.527 | 0.572 | 0.619 | 0.658 | 0.708 | 0.766 | 0.829 | 0.878
in cyclohexane | – | 0.00758 | 0.00992 | 0.014 | 0.0185 | 0.0263 | 0.0364 | 0.0621
in ethanol | 0.133 | 0.176 | 0.231 | 0.323 | 0.431 | 0.555 | 0.698 | 0.833
in ethyl acetate | 0.49 | 0.528 | 0.57 | 0.611 | 0.66 | 0.728 | 0.788 | 0.863
in isobutanol | 0.0584 | 0.0819 | 0.118 | 0.157 | 0.251 | 0.382 | 0.585 | 0.841
in isopropanol | 0.0524 | 0.0814 | 0.123 | 0.198 | 0.294 | 0.461 | 0.637 | 0.845
in methanol | 0.192 | 0.245 | 0.296 | 0.375 | 0.477 | 0.591 | 0.703 | 0.845
in n-butanol | 0.112 | 0.145 | 0.194 | 0.247 | 0.353 | 0.487 | 0.664 | 0.84
in n-butyl acetate | 0.441 | 0.485 | 0.532 | 0.585 | 0.645 | 0.706 | 0.777 | 0.849
in n-heptane | 0.00549 | 0.0073 | 0.00879 | 0.0115 | 0.0155 | 0.0205 | 0.026 | 0.0346
in n-propanol | 0.0925 | 0.133 | 0.181 | 0.256 | 0.365 | 0.512 | 0.669 | 0.838
